Laboratory results taken from ChEMBL document CHEMBL3992516, “Synthesis and SAR evaluation of novel thioridazine derivatives active against drug-resistant tuberculosis” (Eur J Med Chem, 2017).
Converted amounts (≈) assume the structure as drawn. The source made the active and inactive calls. The rule behind the calls is not given here.

What was measured:
[1] = test system: Mycolicibacterium smegmatis; experiment: Antimycobacterial activity against Mycobacterium smegmatis MC2 155 ATCC 700084 by microplate alamar blue assay; format: functional
[2] = test system: Mycobacterium tuberculosis; experiment: Antimycobacterial activity against Mycobacterium tuberculosis MC2 7000 by microplate alamar blue assay; format: functional
[3] = test system: Mycobacterium tuberculosis; experiment: Antimycobacterial activity against Mycobacterium tuberculosis H37Rv ATCC 27294 incubated for 7 days measured 24 hrs post incubation by resazurin microtiter assay; format: functional
[4] = test system: Mycobacterium tuberculosis; experiment: Antimycobacterial activity against drug-succeptible Mycobacterium tuberculosis CF73 incubated for 7 days measured 24 hrs post incubation by resazurin microtiter assay; format: functional
[5] = test system: Mycolicibacterium smegmatis; experiment: Inhibition of efflux pump in Mycobacterium smegmatis assessed as increase in accumulation of ethidium bromide at 0.25 times MIC measured every min for 60 mins by fluorimetric method
[6] = Selectivity index, ratio of IC50 for human MRC5 cells to MIC90 for drug-succeptible Mycobacterium tuberculosis CF73; format: toxicity; conditions: read-out: Selectivity Index
[7] = test system: MRC5; experiment: Cytotoxicity against human MRC5 cells assessed as decrease in cell viability after 24 hrs by resazurin reduction assay; format: cell-based; conditions: MRC5, 24 h
[8] = test system: J774; experiment: Cytotoxicity against mouse J774 cells assessed as decrease in cell viability after 24 hrs by resazurin reduction assay; format: cell-based; conditions: J774, 24 h

Row | SMILES | MIC [1] | MIC [2] | MIC90 [3] | MIC90 [4] | inhibition [5] | selectivity ratio [6] | IC50 [7] | IC50 [8]
1 | c1ccc(N2CCN(CCCN3c4ccccc4Sc4ccccc43)CC2)cc1 | > 64 µg/mL | > 64 µg/mL | – | – | – | – | – | –
2 | CN1CCN(CCCN2c3ccccc3Sc3ccccc32)CC1 [PERAZINE] | 64 µg/mL (≈ 189 µM) | 27 µg/mL (≈ 79.5 µM) | 100 µg/mL (≈ 295 µM) | > 100 µg/mL | Active | – | – | –
3 | CSc1ccc2c(c1)N(C(=O)CN1CCN(C)CC1)c1ccccc1S2 | > 64 µg/mL | > 64 µg/mL | – | – | – | – | – | –
4 | CN1CCCCC1CCn1c2ccccc2c2ccccc21 (stereo unspecified) | > 64 µg/mL | 64 µg/mL (≈ 219 µM) | 60 µg/mL (≈ 205 µM) | 39 µg/mL (≈ 133 µM) | – | – | – | –
5 | CSc1ccc2c(c1)N(CCC1CCCCN1)c1ccccc1S2 (stereo unspecified) | 16 µg/mL (≈ 44.9 µM) | 8 µg/mL (≈ 22.4 µM) | 100 µg/mL (≈ 280 µM) | > 100 µg/mL | – | – | – | –
6 | CSc1ccc2c(c1)N(CCCN1CCN(C34CC5CC(CC(C5)C3)C4)CC1)c1ccccc1S2 | 64 µg/mL (≈ 127 µM) | 64 µg/mL (≈ 127 µM) | – | – | – | – | – | –
7 | Clc1ccc2c(c1)N(CCCN1CCSCC1)c1ccccc1S2 | > 64 µg/mL | > 64 µg/mL | – | – | – | – | – | –
8 | CN1CCN(CCCn2ccc3ccccc32)CC1 | > 64 µg/mL | > 64 µg/mL | – | – | – | – | – | –
9 | NNC(=O)c1ccncc1 [ISONIAZID] | 4 µg/mL (≈ 29.2 µM) | 0.125 µg/mL (≈ 0.911 µM) | 0.03 µg/mL (≈ 0.219 µM) | 0.03 µg/mL (≈ 0.219 µM) | – | – | – | –
10 | Clc1ccc2c(c1)N(CCCN1CCN(c3ccccc3)CC1)c1ccccc1S2 | > 64 µg/mL | > 64 µg/mL | – | – | – | – | – | –
11 | CSc1ccc2c(c1)N(CCCN1CCSCC1)c1ccccc1S2 | > 64 µg/mL | > 64 µg/mL | – | – | – | – | – | –
12 | c1ccc2c(c1)c1ccccc1n2CCC1CCCCN1 (stereo unspecified) | > 64 µg/mL | > 64 µg/mL | – | – | – | – | – | –
13 | Clc1ccc2c(c1)N(CCC1CCCCN1)c1ccccc1S2 (stereo unspecified) | 16 µg/mL (≈ 46.4 µM) | 4 µg/mL (≈ 11.6 µM) | 26 µg/mL (≈ 75.4 µM) | 11 µg/mL (≈ 31.9 µM) | inactive | 0.9 | 10 µg/mL (≈ 29 µM) | 10.7 µg/mL (≈ 31 µM)
14 | CSc1ccc2c(c1)N(CCC1CCCCN1C(C)C)c1ccccc1S2 (stereo unspecified) | > 64 µg/mL | > 64 µg/mL | – | – | – | – | – | –
15 | CCCN1CCCCC1CCN1c2ccccc2Sc2ccc(SC)cc21 (stereo unspecified) | > 64 µg/mL | 64 µg/mL (≈ 161 µM) | 45 µg/mL (≈ 113 µM) | – | – | – | – | –
16 | CN1CCCCC1CCn1cnc2ccccc21 (stereo unspecified) | > 64 µg/mL | > 64 µg/mL | – | – | – | – | – | –
17 | CSc1ccc2c(c1)N(CCC1CCCCN1Cc1ccccc1)c1ccccc1S2 (stereo unspecified) | 16 µg/mL (≈ 35.8 µM) | 8 µg/mL (≈ 17.9 µM) | > 100 µg/mL | 37 µg/mL (≈ 82.8 µM) | – | – | – | –
18 | CSc1ccc2c(c1)N(CCCN1CCN(C3C4CC5CC(C4)CC3C5)CC1)c1ccccc1S2 (stereo unspecified) | 4 µg/mL (≈ 7.91 µM) | > 64 µg/mL | 43 µg/mL (≈ 85 µM) | 98 µg/mL (≈ 194 µM) | – | – | – | –
19 | CN1CCCCC1CCN1c2ccccc2Sc2ccc(Cl)cc21 (stereo unspecified) | 16 µg/mL (≈ 44.6 µM) | 8 µg/mL (≈ 22.3 µM) | 19 µg/mL (≈ 52.9 µM) | 16 µg/mL (≈ 44.6 µM) | – | 0.8 | 13 µg/mL (≈ 36.2 µM) | 8.4 µg/mL (≈ 23.4 µM)
20 | CSc1ccc2c(c1)N(CCCN1CCN(C)CC1)c1ccccc1S2 | 32 µg/mL (≈ 83 µM) | 27 µg/mL (≈ 70 µM) | 69 µg/mL (≈ 179 µM) | 27 µg/mL (≈ 70 µM) | Active | – | – | –
21 | CO[C@H]1/C=C/O[C@@]2(C)Oc3c(C)c(O)c4c(O)c(c(/C=N/N5CCN(C)CC5)c(O)c4c3C2=O)NC(=O)/C(C)=C\C=C\[C@H](C)[C@H](O)[C@@H](C)[C@@H](O)[C@@H](C)[C@H](OC(C)=O)[C@@H]1C [RIFAMPIN] | – | 0.25 µg/mL (≈ 0.304 µM) | 0.3 µg/mL (≈ 0.365 µM) | 8 µg/mL (≈ 9.72 µM) | – | – | – | –
22 | c1ccc2c(c1)ncn2CCC1CCCCN1 (stereo unspecified) | > 64 µg/mL | > 64 µg/mL | 100 µg/mL (≈ 436 µM) | > 100 µg/mL | – | – | – | –
23 | c1ccc2c(c1)ccn2CCC1CCCCN1 (stereo unspecified) | 1.6 µg/mL (≈ 7.01 µM) | – | 2.9 µg/mL (≈ 12.7 µM) | 1 µg/mL (≈ 4.38 µM) | inactive | 15 | 15 µg/mL (≈ 65.7 µM) | 7.3 µg/mL (≈ 32 µM)
24 | c1ccc2c(c1)Sc1ccccc1N2CCC1CCCCN1 (stereo unspecified) | > 64 µg/mL | > 64 µg/mL | > 64 µg/mL | 47 µg/mL (≈ 151 µM) | – | – | – | –
25 | CSc1ccc2c(c1)N(C(=O)CN1CCCCC1)c1ccccc1S2 | – | – | > 100 µg/mL | > 100 µg/mL | – | – | – | –
26 | CN1CCCCC1CCN1c2ccccc2Sc2ccccc21 (stereo unspecified) | 32 µg/mL (≈ 98.6 µM) | 16 µg/mL (≈ 49.3 µM) | > 64 µg/mL | 47 µg/mL (≈ 145 µM) | – | – | – | –
27 | CSc1ccc2c(c1)N(CCCN1CCN(c3ccccc3)CC1)c1ccccc1S2 | > 64 µg/mL | > 64 µg/mL | – | – | – | – | – | –
28 | CSc1ccc2c(c1)N(CCC1CCCCN1C)c1ccccc1S2 (stereo unspecified) [THIORIDAZINE] | 16 µg/mL (≈ 43.2 µM) | 8 µg/mL (≈ 21.6 µM) | 10 µg/mL (≈ 27 µM) | 8 µg/mL (≈ 21.6 µM) | – | 1 | 8.2 µg/mL (≈ 22.1 µM) | 4.1 µg/mL (≈ 11.1 µM)
